Experimental findings from patent publication US8182794B2, “Sunless tanning products and processes” (Concept Laboratories, priority 2003, dated 2012) are described below.

Entries after “also recorded” stand apart in the source; their conditions may differ.

For this experiment, the system named is human skin. The experiment is described as follows: Colorimeter (Minolta CR-10) L* a* b* readings of sunless tan on forearm skin. Type of experiment: in vivo. The conditions noted are these: 5% additive with 5% DHA and 5% MSM; Table 1 series. On the procedure:
An equal amount of each formula solution (approximately 150 mg.) from Table 1 was applied to 2″×2″ adjacent sections of forearm, allowed to dry and covered with clothing for the duration of the testing. The application areas were visibly the same color prior to treatment with the solutions and this was confirmed via calorimeter readings. Readings were typically made 24-48 hours post application of the test solutions. Three calorimeter readings were made of each treatment area with a Minolta CR-10 adapted for human skin readings and the readings were averaged. All eight formulas shown in Table 1 were evaluated on several individuals with Fitzpatrick skin types I-III. Although the absolute values for the tanning responses differed between individuals, the relative differences between formulations in terms of tanning response were the same. Typical results of the testing of one subject were recorded in average L* a* b* color values and are shown in Table 2 along with baseline skin color. […]
The results shown in Table 12 were confirmed by several repeat experiments conducted on several relatively light-skin individuals (Fitzpatrick Type I-III). The data are based on calculation of the average increase in skin darkening based on skin color changes measured by the colorimeter “L” or light-dark value [(Δ L)]; the average increase in skin hue intensity measured simultaneously by both the colorimeter “a*” or red value and the colorimeter “b*” or yellow value (Δ√a^2+b^2); and, the average increase in total tan which adds the changes in darkness and hue increases [(Δ L)+Δ√a^2+b^2].
`OCCCCO` [butylene glycol]: the “effect of additive on tanning response of DHA and MSM” value (shortened to “effect of additive”) is “darker tanning responses; also recorded: significantly increase”.

Consider `CCCC(O)CO` (stereo not drawn) [pentylene glycol, 1,2-pentanediol], for which the “effect of additive” value is reported as “darker tanning responses; also recorded: significantly increase”.

For `CC(O)CO` (stereo not drawn) [propylene glycol], the “effect of additive” value is on record as “darker tanning responses”.
